Test results as given in patent US20170296545A1, “Composition Of A Ceramic Matrix With A Controlled Release Drug, A Tablet Obtained From The Composition And Methods For Obtaining The Composition And The Tablet” (priority 2009, published 2017).
Read-outs that look alike come from different tables or passages of the source.

Assays:
Wistar rats [1] = details: rat, in vivo
Procedure: In the slices of the liver of the Wistar rats, it was evaluated the presence of hepatic necrosis, proliferation of biliary ducts, proliferation of fibrous conjunctive tissue, and blood extravasation (Cunha, et. al., 2009).

Wistar rats [2] = details: rat, in vivo; remark: listed apart in the source
Procedure: The tests were performed according to Organization for Economic Cooperation and development OECD 423 guide. The methodology consisted of toxicity by evaluating and analyzing of the biochemical and histopathological parameters which resulted from administration thereof.

[3] = cited from earlier work

Compound | histopathological evaluation of the liver (Wistar rats [1]; 50 mg/kg) | histopathological evaluation of the liver (Wistar rats [1]; 300 mg/kg) | histopathological evaluation of the liver (Wistar rats [1]; 2000 mg/kg) | histopathological evaluation of the livers (Wistar rats [1]; po) | macroscopic tests of the organs (Wistar rats [1]; po) | short-term repeated-dose toxicity (Wistar rats [2]) | solubility in acid or diluted alkaline solutions ([3]; acid or diluted alkaline solutions) | solubility in alcohol ([3]; alcohol) | solubility in water ([3]; water)
pseudoboehmite | tissue integrity | a sinusoidal congestion was detected | tissue integrity | there were not observed any changes in the tissue integrity or apparent injuries | No abnormal changes | low |  |  | 
Nc1nc2c(ncn2COCCO)c(=O)[nH]1 [acyclovir] |  |  |  |  |  |  | only slight soluble | insoluble | poorly soluble
